In patent publication US10899710B2, “Pyridines and their use in the treatment of cancer” (The United States of America, as represented by the …, priority 2015, dated 2021):
Structures can show the parent of a compound that is named as a salt. Where two headings read alike, the source gives them in different places.

Key:
[1] = biological target: T1, recombinant thioredoxin reductase 1 (TrxR1) (Homo sapiens, UniProt Q16881); experiment: Inhibition of recombinant TrxR1 (DTNB assay); type: biochemical; details: read-out: TrxR inhibition (IC50)
T1 sequence (Q16881 151-649 limits assumed): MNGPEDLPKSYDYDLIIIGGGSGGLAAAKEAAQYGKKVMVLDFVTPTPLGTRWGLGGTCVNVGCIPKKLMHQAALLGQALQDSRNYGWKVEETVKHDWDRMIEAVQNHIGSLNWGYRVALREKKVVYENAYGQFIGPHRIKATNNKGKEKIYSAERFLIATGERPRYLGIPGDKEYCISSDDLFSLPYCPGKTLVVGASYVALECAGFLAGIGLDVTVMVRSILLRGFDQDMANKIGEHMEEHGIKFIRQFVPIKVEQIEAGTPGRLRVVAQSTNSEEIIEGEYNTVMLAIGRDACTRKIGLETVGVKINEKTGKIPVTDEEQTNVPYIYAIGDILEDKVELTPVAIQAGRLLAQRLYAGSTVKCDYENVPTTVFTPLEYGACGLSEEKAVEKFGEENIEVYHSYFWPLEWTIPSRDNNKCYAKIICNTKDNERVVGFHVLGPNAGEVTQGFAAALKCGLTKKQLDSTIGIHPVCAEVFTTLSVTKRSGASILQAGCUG
Protocol: Small molecule inhibition of recombinant thioredoxin reductase 1 (TrxR1) and gluthathione reductase (GR) was examined in 96-well plate format. 15 nM TrxR1 was incubated in the presence of 250 μM NADPH, 0.1 mg/ml BSA, and various concentrations of the compound of Example 1 (1% DMSO final) in 50 mM Tris (pH 7.5) and 2 mM EDTA buffer for 15 minutes. Following the incubation period, 2.5 mM DTNB was added to each well and the change in O.D. at 412 nm was followed. Percent activity was determined using DMSO vehicle and no TrxR1 (blank) controls. 2 nM GR was incubated in the presence of 250 μM NADPH, 0.1 mg/ml BSA, and various concentrations of compounds (1% DMSO final) in 50 mM Tris (pH 7.5) and 2 mM EDTA buffer for 15 minutes. Following the incubation period, 1 mM GSSG was added to each well and the change in O.D. at 340 nm was followed. Percent activity was determined using DMSO vehicle and no GR (blank) controls.

[2] = tested on: HL-60(TB); experiment: Growth inhibition GI50, HL-60(TB); type: cell-based; details: Homo sapiens, Leukemia
Protocol: (§1) Cell lines were plated 2000 cells/well in 96-well black optical plates in the presence of 10% FBS media containing 25 nM selenite. The following day cells were treated with various concentrations of the compound of Example 1 (0.1% DMSO final) and incubated for 72 hrs. After the incubation Cell-Quanti Blue reagent was added to each well and incubated for additional 3 hrs. Fluorescence was read ex:530 nm/em:590 nm, and percent of viability was determined using DMSO vehicle and no cell (blank) controls.
(§2) Further results obtained in similar experiments were as indicated below (GI50 refers to concentration of compound yielding 50% growth inhibition; E denotes an exponent to the base 10).

[3] = tested on: RPMI-8226; experiment: Growth inhibition GI50, RPMI-8226; type: cell-based; details: Homo sapiens, Leukemia
Protocol: as §1, §2

[4] = tested on: SR; experiment: Growth inhibition GI50, SR; type: cell-based; details: Homo sapiens, Leukemia
Protocol: as §1, §2

[5] = tested on: HOP-92; experiment: Growth inhibition GI50, HOP-92; type: cell-based; details: Homo sapiens, Non-Small Cell Lung Cancer
Protocol: as §1, §2

[6] = tested on: NCI-H23; experiment: Growth inhibition GI50, NCI-H23; type: cell-based; details: Homo sapiens, Non-Small Cell Lung Cancer
Protocol: as §1, §2

[7] = tested on: NCI-H322M; experiment: Growth inhibition GI50, NCI-H322M; type: cell-based; details: Homo sapiens, Non-Small Cell Lung Cancer
Protocol: as §1, §2

[8] = tested on: NCI-H460; experiment: Growth inhibition GI50, NCI-H460; type: cell-based; details: Homo sapiens, Non-Small Cell Lung Cancer
Protocol: as §1, §2

[9] = tested on: COLO 205; experiment: Growth inhibition GI50, COLO 205; type: cell-based; details: Homo sapiens, Colon Cancer
Protocol: as §1, §2

[10] = tested on: HCT-116; experiment: Growth inhibition GI50, HCT-116; type: cell-based; details: Homo sapiens, Colon Cancer
Protocol: as §1, §2

[11] = tested on: HT29; experiment: Growth inhibition GI50, HT29; type: cell-based; details: Homo sapiens, HT-29, Colon Cancer
Protocol: as §1, §2

[12] = tested on: KM12; experiment: Growth inhibition GI50, KM12; type: cell-based; details: Homo sapiens, Colon Cancer
Protocol: as §1, §2

[13] = tested on: SF-268; experiment: Growth inhibition GI50, SF-268; type: cell-based; details: Homo sapiens, CNS Cancer
Protocol: as §1, §2

[14] = tested on: SF-295; experiment: Growth inhibition GI50, SF-295; type: cell-based; details: Homo sapiens, CNS Cancer
Protocol: as §1, §2

[15] = tested on: SNB-75; experiment: Growth inhibition GI50, SNB-75; type: cell-based; details: Homo sapiens, CNS Cancer
Protocol: as §1, §2

[16] = tested on: LOX IMVI; experiment: Growth inhibition GI50, LOX IMVI; type: cell-based; details: Homo sapiens, Melanoma
Protocol: as §1, §2

[17] = tested on: MALME-3M; experiment: Growth inhibition GI50, MALME-3M; type: cell-based; details: Homo sapiens, Melanoma
Protocol: as §1, §2

[18] = tested on: SK-MEL-28; experiment: Growth inhibition GI50, SK-MEL-28; type: cell-based; details: Homo sapiens, Melanoma
Protocol: as §1, §2

[19] = tested on: SK-MEL-5; experiment: Growth inhibition GI50, SK-MEL-5; type: cell-based; details: Homo sapiens, Melanoma
Protocol: as §1, §2

[20] = tested on: IGROV1; experiment: Growth inhibition GI50, IGROV1; type: cell-based; details: Homo sapiens, IGROV-1, Ovarian Cancer
Protocol: as §1, §2

[21] = tested on: OVCAR-4; experiment: Growth inhibition GI50, OVCAR-4; type: cell-based; details: Homo sapiens, Ovarian Cancer
Protocol: as §1, §2

[22] = tested on: OVCAR-8; experiment: Growth inhibition GI50, OVCAR-8; type: cell-based; details: Homo sapiens, Ovarian Cancer
Protocol: as §1, §2

[23] = tested on: NCI/ADR-RES; experiment: Growth inhibition GI50, NCI/ADR-RES; type: cell-based; details: Homo sapiens, Ovarian Cancer
Protocol: as §1, §2

[24] = tested on: 786-0; experiment: Growth inhibition GI50, 786-0; type: cell-based; details: Homo sapiens, Renal Cancer
Protocol: as §1, §2

[25] = tested on: CAKI-1; experiment: Growth inhibition GI50, CAKI-1; type: cell-based; details: Homo sapiens, Renal Cancer
Protocol: as §1, §2

[26] = tested on: RXF 393; experiment: Growth inhibition GI50, RXF 393; type: cell-based; details: Homo sapiens, Renal Cancer
Protocol: as §1, §2

[27] = tested on: UO-31; experiment: Growth inhibition GI50, UO-31; type: cell-based; details: Homo sapiens, Renal Cancer
Protocol: as §1, §2

[28] = tested on: MCF7; experiment: Growth inhibition GI50, MCF7; type: cell-based; details: Homo sapiens, Breast Cancer
Protocol: as §1, §2

[29] = tested on: BT-549; experiment: Growth inhibition GI50, BT-549; type: cell-based; details: Homo sapiens, Breast Cancer
Protocol: as §1, §2

[30] = tested on: T-47D; experiment: Growth inhibition GI50, T-47D; type: cell-based; details: Homo sapiens, T47D, Breast Cancer
Protocol: as §1, §2

[31] = mouse, in vivo, iv, 10 mg/kg
Protocol: Fox Chase male severe combined immunodeficiency (SCID, Charles River, #250) mice were inoculated with 1×10^6 FaDu cells in PBS at a pre-shaved region located at the anterior lateral thoracic wall. After 13 days of growth, tumors were caliper measured and treatments were initiated. […] Mouse health status was monitored daily, weight was measured, and tumor volume was recorded from caliper measurements.

Compound: COc1ccc([N+](=O)[O-])c(S(=O)(=O)c2ccc(Cl)cc2)n1 [Example 1, 2-((4-Chlorophenyl)sulphonyl)-6-methoxy-3-nitropyridine Hydrochloride]
- IC50 ([1]; Biological Example 1, 15 nM TrxR1, 15 minutes incubation): 0.012 µM
- IC50 ([1]; Biological Example 4): 0.021 µM
- GI50 [2]: 6.81 µM
- GI50 [3]: 3.38 µM
- GI50 [4]: 2.99 µM
- GI50 [5]: 2 µM
- GI50 [6]: 4.58 µM
- GI50 [7]: 20.4 µM
- GI50 [8]: 14.6 µM
- GI50 [9]: 1.96 µM
- GI50 [10]: 2.9 µM
- GI50 [11]: 3.34 µM
- GI50 [12]: 14 µM
- GI50 [13]: 4.57 µM
- GI50 [14]: 13.1 µM
- GI50 [15]: 11 µM
- GI50 [16]: 1.98 µM
- GI50 [17]: 2 µM
- GI50 [18]: 3.57 µM
- GI50 [19]: 12 µM
- GI50 [20]: 12.2 µM
- GI50 [21]: 2.32 µM
- GI50 [22]: 3.67 µM
- GI50 [23]: 4.93 µM
- GI50 [24]: 2.51 µM
- GI50 [25]: 1.61 µM
- GI50 [26]: 4.45 µM
- GI50 [27]: 2.97 µM
- GI50 [28]: 2.24 µM
- GI50 [29]: 2.75 µM
- GI50 [30]: 2.12 µM
- Signs of general or systemic toxic effects [31]: no overt signs of general or systemic toxic effects
